Where a SMILES comes first, the peptide text is derived from it. Bridges are numbered along the chain shown (N, C = ends). Roman numbers before positions name the chains, in order. Where no end group is shown, it is not given here. [ ]: non-standard residue; d: D form. Aib = CC(C)(N)C(=O)O; Ahx = NCCCCCC(=O)O

One series relates to SK-MEL-5 cells. The format is cell-based. Conditions: 18 h. How it is done: FIG. 4. (A) Assay of cell viability using incorporation of ^3H-thymidine after treatment with different concentrations of SEQ ID No. 10 for 18 hrs. (B) Flow cytometry of SK-MEL5 cells before and after treatment with 10 microM SEQ ID No. 10 with DR6 tags at two branches, using Annexin V and Propidium Iodide (lower panel) and forward/side scatter (upper panel).
The effect of SEQ ID No. 10 on viability was also measured by ^3H thymidine uptake (FIG. 4 (A)). […] The apoptosis of SK-Mel5 cells was quantitated using flow cytometry. 49% of cells were determined to be apoptotic and 11% necrotic at 2 hrs using annexin V stain. Corresponding figures for 6 hrs were 57% and 14%, respectively (FIG. 4(B)). From the results presented here and analysis of growth promoting pathways described later-S100B appears to be a generalized growth promoter, when over-expressed.

Series [1] can be described thus: Toxicity in mice, i.v. treatment. The series is classed as in vivo, mouse. How it is done:
The effect of SEQ ID No. 10 was tested in a syngenic mouse model of melanoma. […] Histopathology of some key target organs after 8 days of treatment was normal, indicating no significant toxicity. […] Immuno-histochemistry of growth marker PCNA indicates complete loss of this antigen in the residual tumor mass upon treatment, indicating complete loss of proliferating cells (FIG. 7(C)).
Experiments were carried out under protocols approved by the Institutional Animal Ethics Committee and institutional guidelines for the proper use of animals in research were followed. National guidelines had been followed. C57BL/6J female mice (mean initial weight, 20 g) were kept in one mice in one cage at 19° C. to 23° C. with a 12 hour light/12 hour dark cycle. They had free access to water and food. To generate tumor, 1×10^6 B16F10 cells were mixed with Matrigel (BD bioscience) and inoculated S.C. in the right flank of 6 week-old mice. Tumors (typically 2 mm in diameter) were palpable 5 days after subcutaneous injection. Peptide treatments (50 mg/kg body weight) were administered by intravenous tail vein injection on the day tumors became apparent (day 0) and then days 1, 2, 3, 4, 5, 6 and 7. Control mice were treated only with saline vehicle. Mice were weighted, and tumor volumes were calculated with the following formula: π/6×larger diameter×(smaller diameter)^2.

The target in the next series is T1, S100B (Homo sapiens, UniProt P04271).
T1 sequence (P04271 1-92): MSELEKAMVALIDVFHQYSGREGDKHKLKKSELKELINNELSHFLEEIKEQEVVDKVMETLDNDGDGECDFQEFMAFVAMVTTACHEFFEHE
Kind of series: Fluorescence anisotropy binding of N-terminal fluorescein labeled peptides to S100B. The source says:
FIG. 2. (A) Table of some representative peptides synthesized which respectively include pM-53 (SEQ ID No. 6), pBN-53 (SEQ ID No. 7), pBDC-53 (SEQ ID No. 8), pBM-TRTK (SEQ ID No. 2), pBDC-TRTK (two SEQ ID No. 2's cross-linked together with BMH), and pBBD-TRTK (SEQ ID No. 11) and their dissociation constants. Binding isotherm of branch dimeric SEQ ID No. 3 (i.e., SEQ ID No. 11) with (B) S-100B and (C) S100P and (D) branch dimeric SEQ ID No. 5 (i.e., SEQ ID No. 12) with S100B. Fluorescein labeled, 5 nM branch dimeric SEQ ID No. 3 (i.e., SEQ ID No. 11) or branch dimeric SEQ ID No. 5 (i.e., SEQ ID No. 12) was titrated with increasing concentrations of S100B or S100P in 50 mM Tris-HCl buffer, pH 7.5, containing 50 mM NaCl and 10 mM CaCl2 at ambient temperatures which was 25±1 degree C. Anisotropy was determined at each point. The each point is averaging of at least three independent experiments. The line is best fit to a single site binding equation given in description of the invention.
Binding affinity of aib substituted p53 (SEQ ID No. 7) (and all other peptides) was estimated by fluorescence anisotropy using N-terminal fluorescein labeled peptides. […] Since S100B is a dimer, one possible way to enhance the binding is to synthesize a bivalent molecule, which can simultaneously bind to two subunits. SEQ ID No. 7 was dimerized with a properly designed cross-linker through inserted cysteine residues (SEQ ID No. 8). The C-terminal side of the two peptides (bound to two different subunits) comes fairly close and is separated by shallow groove allowing a cross-linker to fit. The length of the cross-linker was chosen such that it spans the separation between the two cysteine residues in the predicted structure.
Binding data of the several of these peptides are shown in FIG. 2 (A) and some of the corresponding binding isotherms are shown FIG. 2(B-D). […] Also synthesized was a mutant branched peptide (SEQ ID No. 12 which is a lysine branch dimeric form of SEQ ID No. 5) bearing two mutations in the interacting residues. […] This peptide will be used as a control in the cellular experiments to be described later.
A general note: Fluorescence polarisation rises when a labelled molecule tumbles more slowly, as on binding a larger partner.

In the next series the test system is SK-MEL5 cells. As to the kind of experiment: Phase contrast microscopy of SK-MEL5 cells (shape change, blebbing, apoptosis). The series is classed as cell-based. The source says:
FIG. 3. Phase contrast microscopy of SK-MEL5 cells (A) 2 hrs after treatment with 10 microM SEQ ID No. 10; (B) 18 hrs after treatment with 20 microM branch dimeric SEQ ID No. 5 (i.e., SEQ ID No. 12); (C) 2 hr after treatment with branch dimeric SEQ ID No. 3 (i.e., SEQ ID No. 11) (without the cell penetration tag) and (D) control.
FIG. 6. (A) Phase contrast microscopy of SK-MEL5 cells (Upper panel) 10 microM SEQ ID No. 10 with DR6 tags at two branches (Lower panel), and 10 microM pBBDR-TRTK (i.e., SEQ ID No. 10), pre-treated with 10 microM pifithrin-micro, 1 hr after treatment (Upper panel). (B) Confocal microscopic images of merged p53 (green) and mitotracker (red), Top untreated and bottom, 1 h after treatment with SEQ ID No. 10.
The effect of all the synthesized peptides on several melanoma cell lines which are known to over-express S100B was investigated.
Given the rapidity of apoptosis initiation, the examination of the recently reported direct mitochondrial translocation pathway was also done by the method if Vaseva and Moll, 2009. It has been reported that a small molecule pifithrin-micro blocks this pathway without affecting the canonical transcription-dependent pathway of p53 initiated apoptosis and a close analog, pifithrin-α blocks the canonical pathway without affecting the direct mitochondrial pathway (Strom et al., 2006). […]

The mark [2] stands for this setting: upto 50 mg/Kg body weight, i.v.

The term IC50 denotes the concentration needed to halve the response being measured. The compound `CC[C@H](C)[C@H](NC(=O)[C@H](CCCCN)NC(=O)[C@@H](NC(=O)[C@H](CCCNC(=N)N)NC(=O)[C@@H](NC(=O)[C@@H](CCCNC(=N)N)NC(=O)[C@@H](CCCNC(=N)N)NC(=O)[C@@H](CCCNC(=N)N)NC(=O)[C@@H](CCCNC(=N)N)NC(=O)[C@@H](CCCNC(=N)N)NC(=O)[C@H](N)CCCNC(=N)N)[C@@H](C)O)[C@@H](C)O)C(=O)N[C@@H](CC(=O)O)C(=O)N[C@@H](Cc1c[nH]c2ccccc12)C(=O)NC(C)(C)C(=O)N[C@@H](CCCCN)C(=O)N[C@H](C(=O)N[C@@H](CC(C)C)C(=O)NC(C)(C)C(=O)N[C@@H](CCCCN)C(=O)NCCCCCC(=O)NCCCC[C@H](NC(=O)CCCCCNC(=O)[C@H](CCCCN)NC(=O)C(C)(C)NC(=O)[C@H](CC(C)C)NC(=O)[C@@H](NC(=O)[C@H](CCCCN)NC(=O)C(C)(C)NC(=O)[C@H](Cc1c[nH]c2ccccc12)NC(=O)[C@H](CC(=O)O)NC(=O)[C@@H](NC(=O)[C@H](CCCCN)NC(=O)[C@@H](NC(=O)[C@H](CCCNC(=N)N)NC(=O)[C@@H](NC(=O)[C@@H](CCCNC(=N)N)NC(=O)[C@@H](CCCNC(=N)N)NC(=O)[C@@H](CCCNC(=N)N)NC(=O)[C@@H](CCCNC(=N)N)NC(=O)[C@@H](CCCNC(=N)N)NC(=O)[C@H](N)CCCNC(=N)N)[C@@H](C)O)[C@@H](C)O)[C@@H](C)CC)[C@@H](C)CC)C(N)=O)[C@@H](C)CC` [SEQ ID No. 10, ^DR6 TRTKIDWBKILBKAhxKAhxKBLIKBWDIKTRT-^DR6] had an IC50 with SK-MEL-5 cells below 2000 nM. For the same compound, the “histopathology of key target organs” value in series [1] (after 8 days of treatment, 50 mg/Kg) was “normal”. In addition, in series [1] (setting [2]), the lethality entry is “non-lethal” and the toxicity result is reported as “no demonstrable toxicity”.

For orientation: Kd means the concentration at which binding is half-saturated. `CC[C@H](C)[C@H](NC(=O)[C@H](CCCCN)NC(=O)C(C)(C)NC(=O)[C@H](C)NC(=O)[C@H](CC(=O)O)NC(=O)[C@H](C)NC(=O)[C@H](CCCCN)NC(=O)[C@@H](NC(=O)[C@H](CCCNC(=N)N)NC(=O)[C@@H](N)[C@@H](C)O)[C@@H](C)O)C(=O)N[C@@H](CC(C)C)C(=O)NC(C)(C)C(=O)N[C@@H](CCCCN)C(=O)NCCCCCC(=O)NCCCC[C@H](NC(=O)CCCCCNC(=O)[C@H](CCCCN)NC(=O)C(C)(C)NC(=O)[C@H](CC(C)C)NC(=O)[C@@H](NC(=O)[C@H](CCCCN)NC(=O)C(C)(C)NC(=O)[C@H](C)NC(=O)[C@H](CC(=O)O)NC(=O)[C@H](C)NC(=O)[C@H](CCCCN)NC(=O)[C@@H](NC(=O)[C@H](CCCNC(=N)N)NC(=O)[C@@H](N)[C@@H](C)O)[C@@H](C)O)[C@@H](C)CC)C(N)=O` [SEQ ID No. 12, TRTKADABKILBKAhxKAhxKBLIKBADAKTRT-(I5A,W7A)] (I: H-TRTKADA[Aib]KIL[Aib]K[Ahx]K-NH2 / II: H-TRTKADA[Aib]KIL[Aib]K[Ahx]; amide I:15-II:C; N-terminus assumed): the Kd at S100B (fluorescence anisotropy, 50 mM Tris-HCl pH 7.5, 50 mM NaCl, 10 mM CaCl2, 25 degree C, read-out: Kd (dissociation constant) for S100B) came out at 135 ± 18.5 nM.

As to `NS(=O)(=O)C#Cc1ccccc1` [pifithrin-μ, reference compound], the “effect of pifithrin-μ on peptide-induced apoptosis” value with SK-MEL5 cells (10 microM pifithrin pre-treatment, 10 microM peptide, 1 hr) is “blebbings are not seen”.

On to “QSTBRHBKLMFKTBG (QST[Aib]RH[Aib]KLMFKT[Aib]G-NH2) [SEQ ID No. 7, P53 Aib substituted monomer peptide]”, for which, in the series with S100B (fluorescence anisotropy), the “binding to S100B relative to parent peptide, in words” value is given as “somewhat stronger than the unmodified peptide” and the “dissociation constant for S100B, in words” value is recorded as “micromolar range”.

As to “SEQ ID No. 2 with DR6 tags at two branches: pBM-TRTK dimerised with BMH crosslinker and tagged with hexa-arginine (TRTKIDW[Aib]KIL[Aib]GGGCG-NH2; also: dimer through Cys via BMH crosslinker, DR6 (hexa-arginine) tags on two branches, place not given here)”, the “potency in inducing apoptosis relative to SEQ ID No. 10” value with SK-MEL5 cells (SK-MEL5) is recorded as “nearly as potent as SEQ ID No. 10”.

With “SEQ ID No. 2: pBM-TRTK dimerised through cysteine residues with BMH cross-linker (TRTKIDW[Aib]KIL[Aib]GGGCG-NH2; also: dimer through Cys via BMH crosslinker)”, the “binding to S100B relative to parent peptide, in words” value with S100B (fluorescence anisotropy) was “approximately an order of magnitude tighter binding”.

Consider “SEQ ID No. 8: GCGG Modified pBM53 dimerised with BMH crosslinker; monomer QSTBRHBKLMFKTBGGGCG (QST[Aib]RH[Aib]KLMFKT[Aib]GGGCG-NH2; also: dimer via BMH crosslinker)”, for which the “increase in affinity for S100B upon dimerization” value with S100B (cross-linked dimer versus monomer SEQ ID No. 7) is reported as “approximately 15 fold”.

The values above are taken from patent US9408888B2, “High affinity bivalent helically constrained peptide against cancer” (COUNCIL OF SCIENTIFIC AND INDUSTRIAL RESEARCH, priority 2011, dated 2016).
